Paper PMC6900016, “Synthesis of Indomorphan Pseudo‐Natural Product Inhibitors of Glucose Transporters GLUT‐1 and ‐3” (Angewandte Chemie (International Ed. in English), 2019)

tested on: HCT116; experiment: cells; design: 2-deoxyglucose uptake inhibition, semi-automated resazurin/diaphorase fluorescence read-out of 2DG6P; conditions: Homo sapiens, HCT-116, 0.5 h; 2DG uptake
Method: Resazurin-based 2DG uptake assay (semi-automated high throughput) All buffers, reagents and steps were identical with those described for the manual screening Washing and [compound left out] addition steps were done using an automated cell washer or a multidrop device, respectively. Screening was performed in a 384-well plates. 15,000 HCT116 cells/well seeded into 384-well black-walled, clear bottomed plates (CellBIND, Corning) and incubated overnight. Compounds were added at 30 µM (final concentration for screening or serial dilutions staring from 30 µM for IC50 determinations) from DMSO stocks using the acoustic nanoliter dispenser ECHO 520. Fluorescence intensity was read from the bottom with a SpectraMax Paradigm Multi-Mode Microplate Reader (Molecular devices) using SUPPORTING INFORMATION 259 control (which was set to 100 %) and cells without 2DG (set to 0 %) using Graph Pad Prism 5 or 6 software and IC50 values were determined using a four-parameter fit. The observed difference in the obtained IC50 values for Glupin in the automated screening vs. manually performed assay is most likely attributed to the minituarization that is required for high-troughput screening and usually requires different plate format (384 vs. 96-well plates) and different cell number. In this case, the automated assay was performed in 384-well plates (vs. 96-well plates for the manual assay) with 15,000 cells per well (vs. 40,000 cells per well in the 96-well plates). For kinetic measurements, 15,000 cells were seeded into black CellBIND 384-well plates (Corning) and allowed to attach overnight. Then, the plates were washed 3X with KRB buffer containing 0.1%BSA and treated with different concentrations of 2DG (0-60mM) and Glupin (0-1µM) for 30s to 30min. The uptake was determined using the resazurin/diaphorase system as described above. 2DG uptake was stopped by aspirating the 2DG solution followed by quick wash with ice-cold KRB buffer (0.1 % BSA). Km and Vmax were determined by fitting the data according to Michaelis-Menten using non-linear fitting. The glucose uptake assay monitored the inhibition of 2‐deoxyglucose (2DG) uptake as described by Yamamoto et al.25 Briefly, 2DG uptake is determined by quantification of the 2DG‐6‐phosphate (2DG6P) that accumulates inside the cells by using the diaphorase‐resazurin/‐resorufin system (see Figure S7 a).

| Structure (SMILES) | IC50 [nM] |
| --- | --- |
| CCOC(=O)Cn1c2c(c3cc(OC)ccc31)CC1CC2C(OC)CN1C(=O)c1cccnc1SC (racemic) [5aa, (±)-Ethyl 2-(5,10-dimethoxy-3-(2-(methylthio)nicotinoyl)-1,2,3,4,5,6-hexahydro-7H-2,6-methanoazocino[5,4-b]indol-7-yl)acetate] | 4220 ± 3460 |
| CCOC(=O)Cn1c2c(c3cc(C(=O)N4CCOCC4)ccc31)CC1CC2C(OC)CN1C(=O)c1cccnc1SC (racemic) [5ab, (±)-Ethyl 2-(5-methoxy-3-(2-(methylthio)nicotinoyl)-10-(morpholine-4-carbonyl)-1,2,3,4,5,6-hexahydro-7H-2,6-methanoazocino[5,4-b]indol-7-yl)acetate] | > 30000 |
| COC(=O)Cn1c2c(c3ccccc31)CC1CC2C(OC)CN1C(=O)c1cccnc1SC (racemic) [5ad, (±)-methyl 2-(5-methoxy-3-(2-(methylthio)nicotinoyl)-3,4,5,6-tetrahydro-1H-2,6-methanoazocino[5,4-b]indol-7(2H)-yl)acetate] | 89 ± 32 |
| COC1CN(C(=O)c2cccnc2SC)C2Cc3c(n(CC(=O)Oc4ccccc4)c4ccccc34)C1C2 (racemic) [5ae, (±)-phenyl 2-(5-methoxy-3-(2-(methylthio)nicotinoyl)-3,4,5,6-tetrahydro-1H-2,6-methanoazocino[5,4-b]indol-7(2H)-yl)acetate] | 220 ± 80 |
| CCOC(=O)Cn1c2c(c3ccccc31)CC1CC2C(OC)CN1C(=O)c1cccnc1Cl (racemic) [5af, (±)-Ethyl 2-(3-(2-chloronicotinoyl)-5-methoxy-1,2,3,4,5,6-hexahydro-7H-2,6-methanoazocino[5,4-b]indol-7-yl)acetate] | 93 ± 41 |
| CCOC(=O)Cn1c2c(c3ccccc31)CC1CC2C(OC)CN1C(=O)c1cccnc1S(C)(=O)=O (racemic) [5ag, (±)-Ethyl 2-(5-methoxy-3-(2-(methylsulfonyl)nicotinoyl)-1,2,3,4,5,6-hexahydro-7H-2,6-methanoazocino[5,4-b]indol-7-yl)acetate] | 1700 ± 700 |
| CCOC(=O)Cn1c2c(c3ccccc31)CC1CC2C(OC)CN1C(=O)c1cccnc1Sc1ccccc1 (racemic) [5ah, (±)-Ethyl 2-(5-methoxy-3-(2-(phenylthio)nicotinoyl)-1,2,3,4,5,6-hexahydro-7H-2,6-methanoazocino[5,4-b]indol-7-yl)acetate] | 140 ± 70 |
| CCCSc1ncccc1C(=O)N1CC(OC)C2CC1Cc1c2n(CC(=O)OCC)c2ccccc12 (racemic) [5ai, (±)-Ethyl 2-(5-methoxy-3-(2-(propylthio)nicotinoyl)-1,2,3,4,5,6-hexahydro-7H-2,6-methanoazocino[5,4-b]indol-7-yl)acetate] | 190 ± 120 |

Continued, values first:

| IC50 [nM] | Structure (SMILES) |
| --- | --- |
| 180 ± 60 | CCOC(=O)Cn1c2c(c3ccccc31)CC1CC2C(OC)CN1C(=O)c1cccnc1Br (racemic) [5aj, (±)-Ethyl 2-(3-(2-bromonicotinoyl)-5-methoxy-1,2,3,4,5,6-hexahydro-7H-2,6-methanoazocino[5,4-b]indol-7-yl)acetate] |
| 220 ± 70 | CCOC(=O)Cn1c2c(c3ccccc31)CC1CC2C(OC)CN1C(=O)c1cccnc1OCC (racemic) [5ak, (±)-Ethyl 2-(3-(2-ethoxynicotinoyl)-5-methoxy-1,2,3,4,5,6-hexahydro-7H-2,6-methanoazocino[5,4-b]indol-7-yl)acetate] |
| 1400 ± 200 | CCOC(=O)Cn1c2c(c3ccccc31)CC1CC2C(OC)CN1C(=O)c1cccnc1N1CCOCC1 (racemic) [5al, (±)-Ethyl 2-(5-methoxy-3-(2-morpholinonicotinoyl)-1,2,3,4,5,6-hexahydro-7H-2,6-methanoazocino[5,4-b]indol-7-yl)acetate] |
| > 30000 | CCOC(=O)Cn1c2c(c3ccccc31)CC1CC2C(OC)CN1C(=O)c1cccnc1NC(=O)C(C)(C)C (racemic) [5am, (±)-Ethyl 2-(5-methoxy-3-(2-pivalamidonicotinoyl)-1,2,3,4,5,6-hexahydro-7H-2,6-methanoazocino[5,4-b]indol-7-yl)acetate] |
